Source: patent publication US20230203041A1, “ANTAGONISTS OF THE ADENOSINE A2A RECEPTOR” (AdoRx Therapeutics Limited, priority 2020, published 2023)

Key:
[1] = target: T1, human Adenosine A2a receptor (Homo sapiens, UniProt P29274); assay: Adenosine receptor TR-FRET binding assay (CA200645 displacement), A2a; conditions: 100 nM CA200645, CHO cell membranes, 2 hours at room temperature
T1 construct: expressed in transfected cells; host or cells: CHO cell membranes

[2] = target: T2, human Adenosine A2b receptor (Homo sapiens, UniProt P29275); assay: Adenosine receptor TR-FRET binding assay (CA200645 displacement), A2b; conditions: 30 nM CA200645, CHO cell membranes, 2 hours at room temperature
T2 construct: expressed in transfected cells; host or cells: CHO cell membranes
T2 sequence (P29275 1-332): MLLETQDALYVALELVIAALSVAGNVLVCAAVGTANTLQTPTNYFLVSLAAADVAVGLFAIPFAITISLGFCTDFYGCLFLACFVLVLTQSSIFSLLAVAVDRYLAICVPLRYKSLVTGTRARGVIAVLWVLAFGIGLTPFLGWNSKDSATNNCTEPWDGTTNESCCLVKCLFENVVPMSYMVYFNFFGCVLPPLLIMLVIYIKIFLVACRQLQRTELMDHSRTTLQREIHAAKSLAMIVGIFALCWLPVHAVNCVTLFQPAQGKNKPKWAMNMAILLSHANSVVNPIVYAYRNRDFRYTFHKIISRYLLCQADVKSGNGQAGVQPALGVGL

human PBMCs = assay: CD3/CD28 stimulated IL-2 release NECA reversal assay in human PBMCs; assay type: cell-based; conditions: PBMC, CD3/CD28 antibody stimulated, 1 uM NECA, 24 hours, IL-2 in culture supernatant;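 also: dose-response as % inhibition where 100% equals no-NECA control wells with CD3/CD28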
Outline: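 PBMCs from citrated donor blood, 50,000 cells/well on plate-bound CD3 antibody (1 ug/ml), with 1 ug/ml CD28 antibody, 1 uM NECA and antagonist at 0.003-10 μM final. After 24 h at 37° C, supernatant IL-2 was measured by MSD immunoassay.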

[3] = system: CD8+ T cells in human whole blood; assay: Measurement of pCREB in CD8+ T cells in human whole blood; assay type: cell-based; conditions: T-cell, 1 h; heparinised human whole blood, rolipram, 3 μM NECA, 60 min, phospho-CREB in CD8+ T cells by FACS
Description: Heparinised human whole blood was pre-incubated at 37° C. with serial dilutions of A2a antagonists for 20 min. and the phosphodiesterase inhibitor rolipram to amplify the pCREB response. The adenosine receptor agonist NECA is then added at a final concentration of 3 μM and following a 60 min incubation the blood is fixed and red blood cells lysed. White blood cells are isolated, permeabilized and stained with directly conjugated fluorescent antibodies to phospho-CREB (Alexa Fluor 488) and CD8 (Alexa Fluor 647) and the level of phospho-CREB in CD8+ T cells is measured by FACS using a BD Accuri C6 Flow Cytometer.

[4] = target: T3, human Adenosine A1 receptor (Homo sapiens, UniProt P30542); assay: Adenosine receptor TR-FRET binding assay (CA200645 displacement), A1
T3 sequence (P30542 1-326): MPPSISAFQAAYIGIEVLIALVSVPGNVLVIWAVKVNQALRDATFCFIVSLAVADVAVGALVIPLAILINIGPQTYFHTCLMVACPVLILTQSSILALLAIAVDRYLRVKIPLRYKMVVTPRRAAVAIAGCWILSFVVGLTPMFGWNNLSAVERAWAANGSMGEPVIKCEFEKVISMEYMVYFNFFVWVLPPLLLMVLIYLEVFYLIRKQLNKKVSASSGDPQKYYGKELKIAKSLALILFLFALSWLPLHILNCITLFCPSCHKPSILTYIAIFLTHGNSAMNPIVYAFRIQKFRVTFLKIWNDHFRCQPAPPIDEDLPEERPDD

[5] = target: T4, human Adenosine A3 receptor (Homo sapiens, UniProt P0DMS8); assay: Adenosine receptor TR-FRET binding assay (CA200645 displacement), A3
T4 sequence (P0DMS8 1-318): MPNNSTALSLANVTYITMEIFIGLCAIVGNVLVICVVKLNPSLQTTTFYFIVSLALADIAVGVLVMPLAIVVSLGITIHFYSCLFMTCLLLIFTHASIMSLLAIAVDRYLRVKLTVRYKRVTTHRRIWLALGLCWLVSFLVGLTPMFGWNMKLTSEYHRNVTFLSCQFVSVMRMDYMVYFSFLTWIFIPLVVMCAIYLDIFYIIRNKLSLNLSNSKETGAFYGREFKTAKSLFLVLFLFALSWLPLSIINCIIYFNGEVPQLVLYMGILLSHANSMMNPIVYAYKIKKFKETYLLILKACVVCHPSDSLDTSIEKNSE

T1 sequence (P29274 whole entry): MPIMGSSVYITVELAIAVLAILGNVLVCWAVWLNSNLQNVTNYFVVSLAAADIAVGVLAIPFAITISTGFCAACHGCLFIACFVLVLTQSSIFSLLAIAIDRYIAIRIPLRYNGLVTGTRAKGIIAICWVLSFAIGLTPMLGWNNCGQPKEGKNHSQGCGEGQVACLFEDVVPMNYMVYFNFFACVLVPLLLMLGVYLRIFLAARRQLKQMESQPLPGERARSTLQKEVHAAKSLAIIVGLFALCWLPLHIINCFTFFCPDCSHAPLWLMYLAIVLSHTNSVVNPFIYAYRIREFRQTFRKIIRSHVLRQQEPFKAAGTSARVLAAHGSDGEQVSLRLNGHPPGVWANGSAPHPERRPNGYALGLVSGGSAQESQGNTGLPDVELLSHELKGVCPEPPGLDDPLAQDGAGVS

Ki [1] | Ki [2] | IC50 [3] | Ki [4] | Ki [5] | SMILES | IC50 (human PBMCs)
0.3 nM | 10 nM | 830 nM | 122 nM | 2310 nM | Cc1cc(-c2c(-c3cccc(C#N)c3)nn3ccc(C(=O)NCC4(O)CC4)nc23)cc(Cl)n1 [Example 6.2, 3-(2-Chloro-6-methyl-4-pyridyl)-2-(3-cyanophenyl)-N-[(1-hydroxycyclopropyl)methyl]pyrazolo[1,5-a]pyrimidine-5-carboxamide] | 8 nM
8 nM | 50 nM | 890 nM | 692 nM | > 1000 nM | CC(=O)N1CCC(Nc2ccn3nc(-c4cccc(C#N)c4)c(-c4cc(C)nc(C)c4)c3n2)CC1 [Example 105.1, 3-[5-[(1-Acetyl-4-piperidyl)amino]-3-(2,6-dimethyl-4-pyridyl)pyrazolo[1,5-a]pyrimidin-2-yl]benzonitrile] | 33 nM
0.1 nM | 6 nM | 80 nM | 47 nM | 860 nM | Cc1cc(-c2c(-c3cccc(C#N)c3)nn3ccc(C(=O)NCC(C)(C)O)nc23)cc(C(F)(F)F)n1 [Example 12.9, 2-(3-Cyanophenyl)-N-(2-hydroxy-2-methyl-propyl)-3-[2-methyl-6-(trifluoromethyl)-4-pyridyl]pyrazolo[1,5-a]pyrimidine-5-carboxamide] | 2 nM
2.6 nM | 3 nM | 1070 nM | 458 nM | > 1000 nM | Cc1cc(-c2c(-c3cccc(C#N)c3)nn3ccc(C(=O)N[C@H]4CNC[C@H]4O)nc23)cc(Cl)n1 [Example 7.2, 3-(2-Chloro-6-methyl-4-pyridyl)-2-(3-cyanophenyl)-N-[cis-(3S,4R)-4-hydroxypyrrolidin-3-yl]pyrazolo[1,5-a]pyrimidine-5-carboxamide] | 70 nM
1 nM | 75 nM | 370 nM | 251 nM | 690 nM | COc1cc(-c2c(-c3cccc(C#N)c3)nn3ccc(C(=O)NCC(C)(C)O)nc23)cc(C)n1 [Example 12.6, 2-(3-Cyanophenyl)-N-(2-hydroxy-2-methyl-propyl)-3-(2-methoxy-6-methyl-4-pyridyl)pyrazolo[1,5-a]pyrimidine-5-carboxamide] | 9 nM
6.4 nM | 3 nM | 570 nM | 55 nM | > 1000 nM | Cc1cc(-c2c(-c3cccc(C#N)c3)nn3ccc(NCc4nnc[nH]4)nc23)cc(Cl)n1 [Example 2.23] | 24 nM
0.1 nM | 17 nM | 430 nM | 252 nM | > 1000 nM | Cc1cc(-c2c(-c3cccc(C#N)c3)nn3ccc(C(=O)NC(C)(C)C#N)nc23)cc(Cl)n1 [Example 6.21, 3-(2-Chloro-6-methyl-4-pyridyl)-N-(1-cyano-1-methyl-ethyl)-2-(3-cyanophenyl)pyrazolo[1,5-a]pyrimidine-5-carboxamide] | 1.3 nM
9.2 nM | 43 nM | 740 nM | 62 nM | > 1000 nM | Cc1cc(-c2c(-c3cccc(C#N)c3)nn3ccc(N)nc23)cc(N)n1 [Example 27.1, 3-[5-Amino-3-(2-amino-6-methyl-4-pyridyl)pyrazolo[1,5-a]pyrimidin-2-yl]benzonitrile] | 36 nM
1.3 nM | 143 nM | 1010 nM | 147 nM | > 1000 nM | COc1cc(-c2c(-c3cccc(C#N)c3)nn3ccc(NCC(C)(C)O)nc23)cc(C)n1 [Example 23.1] | 83 nM
0.7 nM | 3 nM | 240 nM | 115 nM | > 1000 nM | Cc1cc(-c2c(-c3cccc(C#N)c3)nn3ccc(C(=O)NC[C@@H](O)CO)nc23)cc(Cl)n1 [Example 6.15, 3-(2-Chloro-6-methyl-4-pyridyl)-2-(3-cyanophenyl)-N-[(2R)-2,3-dihydroxypropyl]pyrazolo[1,5-a]pyrimidine-5-carboxamide] | 14 nM
0.5 nM | 4 nM | 110 nM | 222 nM | > 1000 nM | Cc1cc(-c2c(-c3cccc(C#N)c3)nn3ccc(C(=O)NCC(C)(O)CO)nc23)cc(C)n1 (stereo not drawn) [Example 92.1] | 14 nM
0.6 nM | 30 nM | 430 nM | 402 nM | 1820 nM | Cc1cc(-c2c(-c3cccc(C#N)c3)nn3ccc(C(=O)N[C@H](C)C(C)(C)O)nc23)cc(Cl)n1 [Example 6.4, 3-(2-Chloro-6-methyl-4-pyridyl)-2-(3-cyanophenyl)-N-[(1 R)-2-hydroxy-1,2-dimethyl-propyl]pyrazolo[1,5-a]pyrimidine-5-carboxamide] | 6 nM

The next lines start with the compound.

SMILES | Ki [1] | Ki [2] | IC50 [3] | Ki [4] | Ki [5] | IC50 (human PBMCs)
Cc1cccnc1CNc1ccn2nc(-c3ccco3)c(C#N)c2n1 [Example 37, 2-(2-Furyl)-5-[(3-methyl-2-pyridyl)methylamino]pyrazolo[1,5-a]pyrimidine-3-carbonitrile] | 0.3 nM | 22 nM | 1460 nM | 5 nM | 186 nM | 13 nM
Cc1cc(-c2c(-c3cccc(C#N)c3)nn3ccc(NC(N)=O)nc23)cc(Cl)n1 [Example 30, [3-(2-Chloro-6-methyl-4-pyridyl)-2-(3-cyanophenyl)pyrazolo[1,5-a]pyrimidin-5-yl]urea] | 0.8 nM | 5 nM | 640 nM | 57 nM | > 1000 nM | 21 nM
Cc1cc(-c2c(-c3cccc(C#N)c3)nn3ccc(NCC(C)(C)O)nc23)cc(Cl)n1 [Example 2, 3-[3-(2-Chloro-6-methyl-4-pyridyl)-5-[(2-hydroxy-2-methyl-propyl)amino]pyrazolo[1,5-a]pyrimidin-2-yl]benzonitrile] | 3.9 nM | 67 nM | 420 nM | 366 nM | > 1000 nM | 84 nM
Cc1cc(-c2c(-c3cccc(C#N)c3C)nn3ccc(C(=O)NCC(C)(C)O)nc23)cc(Cl)n1 [Example 102, 3-(2-Chloro-6-methyl-4-pyridyl)-2-(3-cyano-2-methyl-phenyl)-N-(2-hydroxy-2-methyl-propyl)pyrazolo[1,5-a]pyrimidine-5-carboxamide] | 0.5 nM | 32 nM | 140 nM | 233 nM | > 1000 nM | 16 nM
CC(=O)NC(C)(C)CNC(=O)c1ccn2nc(-c3cccc(C#N)c3)c(-c3cc(C)nc(Cl)c3)c2n1 [Example 98, N-(2-Acetamido-2-methyl-propyl)-3-(2-chloro-6-methyl-4-pyridyl)-2-(3-cyanophenyl)pyrazolo[1,5-a]pyrimidine-5-carboxamide] | 0.4 nM | 9 nM | 360 nM | 87 nM | 655 nM | 3 nM
Cc1cc(-c2c(-c3cccc(C#N)c3)nn3ccc(NC[C@@H](C)O)nc23)cc(Cl)n1 [Example 3, 3-[3-(2-Chloro-6-methyl-4-pyridyl)-5-[[(2R)-2-hydroxypropyl]amino]pyrazolo[1,5-a]pyrimidin-2-yl]benzonitrile] | 0.6 nM | 1 nM | 750 nM | 74 nM | > 1000 nM | 17 nM
